Assay results taken from article PMC6332320, “Factors Influencing Oral Bioavailability of Thai Mango Seed Kernel Extract and Its Key Phenolic Principles” (Molecules, 2015).

Tests used:
[1] = rat, in vivo, ip, 20 mg/kg; cited from earlier work
[2] = mouse, in vivo, po, 80 mg/kg; cited from earlier work
[3] = test system: Caco-2 cell lysates; experiment: Biological stability in Caco-2 cell lysates; format: in vitro ADME, human; conditions: individual compound 100 µM, HBSS pH 6, up to 24 h
Method: Caco-2 cells were cultured in T75 flasks at a seeding density of 2 × 10^6 cells/flask for 12–15 days. The cell lysate was freshly prepared by washing the cells twice with ice-cold HBSS at pH 6 (12 mL). The cells were then collected by scraping and resuspending in ice-cold HBSS at pH 6 (7.5 mL/flask). The cell suspension was vortexed and sonicated in an ice water bath for 30 min to obtain the lysate, which was kept on ice until use, and its cellular protein concentration was determined using a BCA™ protein assay kit (Thermo Fisher Scientific, Rockford, IL, USA) with bovine serum albumin as a reference standard.
Many phenolic compounds were subject to sulfation and glucuronidation by Caco-2 cells at concentrations higher than 20 μM [16, 21, 43] and the metabolites of GA, MG and PGG could not be observed in Caco-2 transport experiment. Therefore, the concentration of the standard pure compounds used in this study was higher than that used in the chemical stability experiment. After preparing the cell lysate, the test compounds were prepared by dissolution in HBSS at pH 6 and then added to the lysates for a final concentration of 1.08 mg/mL protein to obtain final individual concentrations of 100 μM for GA, MG and PGG and 0.75 mg/mL for MSKE, which is equivalent to concentrations of 55.12 ± 4.57 µM GA, 7.56 ± 0.85 µM MG and 110.02 ± 17.52 µM PGG. The mixtures were then incubated in a water bath at 37 °C for 24 h, and samples (50 µL for standard compounds, and 200 µL for MSKE) were collected at 0, 4, 6 and 24 h. Each sample was then added to an ice-cold 50% methanol (150 µL for GA, MG and PGG, and 600 µL for MSKE) to stop the reaction, vortexed and centrifuged at 15,500 rpm for 15 min, and the supernatant was injected into the UPLC for analysis.
The chemical and biological stabilities of the phenolic compounds were expressed as the concentration of the analyte at different time points relative to the concentration of the same analyte at time zero multiplied by 100 (% recovery).

[4] = test system: Caco-2 cells; conditions: cited from earlier work

O=C(OC[C@H]1O[C@@H](OC(=O)c2cc(O)c(O)c(O)c2)[C@H](OC(=O)c2cc(O)c(O)c(O)c2)[C@@H](OC(=O)c2cc(O)c(O)c(O)c2)[C@@H]1OC(=O)c1cc(O)c(O)c(O)c1)c1cc(O)c(O)c(O)c1 [PGG, Pentagalloylglucopyranose]
Cmax [1]: 6 µM | plasma PGG levels [2]: below the limit of detection | stability in HBSS at pH 6 (blank control) [3]: stable in HBSS at pH 6 for 6 h and slightly degraded within 24 h | Papp AB [4]: 0.08 ± 0.03 × 10^−6 cm/s
